Consider ten compounds from US10105357B2, “Indication of antibiotic drugs for preparation of cancer inhibition pharmaceutical composition” (LAUNX BIOMEDICAL CO., LTD., priority 2014, dated 2018).

Where a name gives a salt, the structure may show the parent alone. Read-outs that look alike come from different tables or passages of the source.

Type in all cases: cell-based, human
Assay [1] concerns PC3 (p53−) (Prostate Adenocarcinoma). In words: Cell viability analysis, prostate cancer PC3. The settings on record: Homo sapiens, 72 h, read-out: cell viability (survival rate), PC3, drug 10 μM, 72 hours, WST-1, OD450 nm.
The subject of assay [2] is HL-60 (Acute Promyelocytic Leukemia). In words: Cell viability analysis, leukemia HL-60. The settings on record: Homo sapiens.
In assay [3] the test system is A375 (Amelanotic Melanoma). Put plainly: Cell viability analysis, skin cancer A375. The settings on record: Homo sapiens.
The subject of assay [4] is AGS (Gastric Adenocarcinoma). In words: Cell viability analysis, gastric cancer AGS. The settings on record: Homo sapiens.
For assay [5], the system named is A549 (Lung Adenocarcinoma). Put plainly: Cell viability analysis, lung cancer A549. The note with it: Homo sapiens.
In assay [6] the test system is MCF7 (Mammary Gland, Adenocarcinoma). In words: Cell viability analysis, breast cancer MCF7. The note with it: Homo sapiens.
Assay [7] relates to cancer cell lines. Put plainly: Cell viability analysis (WST-1) on cancer cell lines. The settings on record: drug 10 μM, 72 hours, WST-1; Table 3.
Assay [8] concerns HI650 (Lung Adenocarcinoma). In words: Cell viability analysis, lung cancer HI650. The note with it: Homo sapiens.
Assay [9] has as its system HeLa (Cervix Adenocarcinoma). In words: Cell viability analysis, cervical cancer HeLa. The settings on record: Homo sapiens, HeLa.
Assay [10] concerns MKN-45 (Gastric Adenocarcinoma). In words: Cell viability analysis, gastric cancer MKN-45. The note with it: Homo sapiens.
Assay [11] concerns TSGH-8301 (Urinary Bladder Carcinoma). Put plainly: Cell viability analysis, bladder cancer TSGH-8301. The settings on record: Homo sapiens.
Assay [12] relates to LoVo (Colorectal Adenocarcinoma). Put plainly: Cell viability analysis, colon cancer LoVo. The settings on record: Homo sapiens, LoVo.
Assay [13] concerns HepG2 (Hepatocellular Carcinoma). In words: Cell viability analysis, hepatic cancer HepG2. The settings on record: Homo sapiens.
The mark [14] stands for this setting: HL-60, 72 h, read-out: cell viability (survival rate), HL-60, drug 10 μM, 72 hours, WST-1, OD450 nm.
[15] abbreviates: A-375, 72 h, read-out: cell viability (survival rate), A375, drug 10 μM, 72 hours, WST-1, OD450 nm.
Setting [16] is: 72 h, read-out: cell viability (survival rate), AGS, drug 10 μM, 72 hours, WST-1, OD450 nm.
Setting [17] is: A549, 72 h, read-out: cell viability (survival rate), A549, drug 10 μM, 72 hours, WST-1, OD450 nm.
Where [18] appears, read: MCF7, 72 h, read-out: cell viability (survival rate), MCF7, drug 10 μM, 72 hours, WST-1, OD450 nm.
[19] abbreviates: NCI-H1650, 72 h, read-out: cell viability (survival rate), H1650, drug 10 μM, 72 hours, WST-1, OD450 nm.
Setting [20] is: 72 h, read-out: cell viability (survival rate), HeLa, drug 10 μM, 72 hours, WST-1, OD450 nm.
Where [21] appears, read: MKN-45, 72 h, read-out: cell viability (survival rate), MKN-45, drug 10 μM, 72 hours, WST-1, OD450 nm.
[22] abbreviates: 72 h, read-out: cell viability (survival rate), TSGH, drug 10 μM, 72 hours, WST-1, OD450 nm.
[23] abbreviates: 72 h, read-out: cell viability (survival rate), LoVo, drug 10 μM, 72 hours, WST-1, OD450 nm.
Where [24] appears, read: HepG2, 72 h, read-out: cell viability (survival rate), HepG2, drug 10 μM, 72 hours, WST-1, OD450 nm.

As for `Fc1ccc([C@@H]2CCNC[C@H]2COc2ccc3c(c2)OCO3)cc1` [Paroxetine HCl], the viability at 10 µM stood at 70.6% in assay [1]; 79.1% in assay [2] (setting [14]); 31.9% in assay [3] (setting [15]); 21.5% in assay [4] (setting [16]); 80.1% in [5] (setting [17]); 56.4% in [6] (setting [18]). The viability at 10 µM in assay [8] (setting [19]) is 44.1%; in assay [9] (setting [20]), 42.1%; in [10] (setting [21]), 49.2%; in assay [11] (setting [22]), 56.4%. The “inhibition effect on different cancer cell lines” value in assay [7] is recorded as “significant inhibition effect”.
For the compound `Cc1ccnc(NS(=O)(=O)c2ccc(N)cc2)n1` [Sulfamerazine], the viability at 10 µM in [1] came to 78.4%; in assay [12] (setting [23]), 99.6%; in assay [2] (setting [14]), 105%; in assay [3] (setting [15]), 80.4%; in assay [4] (setting [16]), 87.9%; in assay [5] (setting [17]), 103%. Also, the viability at 10 µM in assay [6] (setting [18]) is 79.8%; in assay [8] (setting [19]), 108%; in [9] (setting [20]) it was 92.3%; in [10] (setting [21]), 87.4%; in assay [11] (setting [22]), 90%. Also, the “inhibition effect on different cancer cell lines” value in [7] was “significant inhibition effect”.
Take `COc1c(N2C[C@@H]3CCCN[C@@H]3C2)c(F)cc2c(=O)c(C(=O)O)cn(C3CC3)c12` [Moxifloxacin hydrochloride]: the viability at 10 µM in [1] stood at 69.1%; in assay [12] (setting [23]), 102%; in assay [2] (setting [14]) it was 97.1%; in [3] (setting [15]) it was 94%; in assay [4] (setting [16]), 77.1%; in assay [5] (setting [17]), 95.5%. The viability at 10 µM in assay [6] (setting [18]) was found to be 90.3%; in [8] (setting [19]) it was 70.9%; in assay [9] (setting [20]), 92%; in assay [10] (setting [21]), 89%; in [11] (setting [22]), 75.7%. For the same compound, the “inhibition effect on different cancer cell lines” value in [7] was “significant inhibition effect”.
In the case of `C[C@@H](c1ncncc1F)[C@](O)(Cn1cncn1)c1ccc(F)cc1F` [Voriconazole], the viability at 10 µM is 97% in assay [1]; 94.3% in assay [2] (setting [14]); 102% in [3] (setting [15]); 86.1% in [4] (setting [16]); 82.9% in assay [5] (setting [17]); 90.1% in assay [6] (setting [18]). The viability at 10 µM was 102% in assay [8] (setting [19]), 92.6% in [9] (setting [20]), 104% in assay [10] (setting [21]) and 53.9% in assay [11] (setting [22]). Also, the “inhibition effect on different cancer cell lines” value in assay [7] is “significant inhibition effect”.
With `O=c1[nH]cnc2c1ncn2[C@H]1CC[C@@H](CO)O1` [Didanosine (Videx), Didanosine], the viability at 10 µM in assay [12] (setting [23]) was 95.1%; in assay [2] (setting [14]) it was 126%; in [3] (setting [15]), 77.2%; in assay [13] (setting [24]), 119%; in assay [4] (setting [16]), 48.7%; in assay [5] (setting [17]) it was 67.5%. Further, the viability at 10 µM came to 78.4% in [6] (setting [18]); 64.2% in assay [8] (setting [19]); 80.3% in [9] (setting [20]); 62% in assay [10] (setting [21]); 76.7% in assay [11] (setting [22]). Besides, in assay [7], the “inhibition effect on different cancer cell lines” value is given as “significant inhibition effect”.
On to `Clc1ccc(C(Cn2ccnc2)OCc2csc3c(Cl)cccc23)c(Cl)c1` (stereo not drawn) [Sertaconazole nitrate], for which the viability at 10 µM in assay [12] (setting [23]) stood at 94.9%; in [2] (setting [14]), 73.4%; in [3] (setting [15]), 52%; in assay [13] (setting [24]), 77.4%; in assay [4] (setting [16]), 97.1%; in assay [5] (setting [17]), 75.4%. Also, the viability at 10 µM in [6] (setting [18]) amounted to 76.4%; in assay [8] (setting [19]), 96.3%; in assay [9] (setting [20]), 58.9%; in assay [10] (setting [21]), 69.5%; in assay [11] (setting [22]), 89.4%. Further, the “inhibition effect on different cancer cell lines” value in assay [7] is reported as “significant inhibition effect”.
`C=C(NC(=O)C(=C)NC(=O)c1csc(C2=N[C@@H]3c4csc(n4)[C@H]4NC(=O)c5csc(n5)[C@H]([C@](C)(O)[C@@H](C)O)NC(=O)[C@H]5CSC(=N5)/C(=C/C)NC(=O)[C@H]([C@@H](C)O)NC(=O)c5csc(n5)[C@]3(CC2)NC(=O)[C@H](C)NC(=O)C(=C)NC(=O)[C@H](C)NC(=O)[C@H]([C@@H](C)CC)N[C@@H]2C=Cc3c([C@H](C)O)cc(nc3[C@H]2O)C(=O)O[C@@H]4C)n1)C(N)=O` [Thiostrepton]: the viability at 10 µM in assay [12] (drug 10 μM, 72 hours, WST-1, OD450 nm, read-out: cell viability (survival rate), LoVo) was 52.9%; in assay [2] (HL-60, drug 10 μM, 72 hours, WST-1, OD450 nm, read-out: cell viability (survival rate), HL-60) it was 37.8%; in assay [3] (A-375, drug 10 μM, 72 hours, WST-1, OD450 nm, read-out: cell viability (survival rate), A375) it was 27.6%; in assay [13] (HepG2, drug 10 μM, 72 hours, WST-1, OD450 nm, read-out: cell viability (survival rate), HepG2), 49.2%; in assay [4] (drug 10 μM, 72 hours, WST-1, OD450 nm, read-out: cell viability (survival rate), AGS), 25.7%; in assay [5] (A549, drug 10 μM, 72 hours, WST-1, OD450 nm, read-out: cell viability (survival rate), A549), 62.2%. Besides, the viability at 10 µM is 65% in assay [6] (MCF7, drug 10 μM, 72 hours, WST-1, OD450 nm, read-out: cell viability (survival rate), MCF7); 45.4% in assay [8] (NCI-H1650, drug 10 μM, 72 hours, WST-1, OD450 nm, read-out: cell viability (survival rate), H1650); 37.8% in assay [9] (drug 10 μM, 72 hours, WST-1, OD450 nm, read-out: cell viability (survival rate), HeLa); 56.7% in assay [10] (MKN-45, drug 10 μM, 72 hours, WST-1, OD450 nm, read-out: cell viability (survival rate), MKN-45); 20.1% in [11] (drug 10 μM, 72 hours, WST-1, OD450 nm, read-out: cell viability (survival rate), TSGH). Also, the “inhibition effect on different cancer cell lines” value in assay [7] is “significant inhibition effect”.
In the case of `Nc1ccn([C@H]2CC[C@@H](CO)O2)c(=O)n1` [Zalcitabine], the viability at 10 µM was found to be 91% in assay [12] (setting [23]); 119% in assay [2] (setting [14]); 83.5% in assay [3] (setting [15]); 96.9% in assay [13] (setting [24]); 69.1% in assay [4] (setting [16]); 66.3% in assay [5] (setting [17]). Moreover, the viability at 10 µM in [6] (setting [18]) turned out to be 52.7%; in assay [8] (setting [19]), 86.4%; in assay [9] (setting [20]), 89.2%; in assay [10] (setting [21]), 70.4%; in assay [11] (setting [22]), 79%. In assay [7], the “inhibition effect on different cancer cell lines” value is listed as “significant inhibition effect”.
As to `Cc1cc2nc3c(=O)[nH]c(=O)nc-3n(C[C@H](O)[C@H](O)[C@H](O)CO)c2cc1C` [Riboflavin (Vitamin B2), Riboflavin], the viability at 10 µM in assay [1] was 79.4%; in assay [12] (setting [23]), 83.3%; in [2] (setting [14]) it was 90%; in assay [3] (setting [15]), 89.7%; in [4] (setting [16]) it was 74.9%; in assay [5] (setting [17]), 67.6%. Also, the viability at 10 µM was found to be 51.1% in assay [8] (setting [19]), 128% in assay [9] (setting [20]), 87.3% in [10] (setting [21]) and 79.7% in assay [11] (setting [22]). Moreover, the “inhibition effect on different cancer cell lines” value in assay [7] was “significant inhibition effect”.
As to `CCn1cc(C(=O)O)c(=O)c2ccc(C)nc21` [Nalidixic acid (NegGram), Nalidixic acid], the viability at 10 µM was determined as 91.5% in assay [12] (setting [23]); 113% in assay [2] (setting [14]); 87.9% in [3] (setting [15]); 96.8% in assay [13] (setting [24]); 57.3% in assay [4] (setting [16]); 83.8% in assay [5] (setting [17]). Further, the viability at 10 µM in assay [6] (setting [18]) worked out at 86%; in [8] (setting [19]), 72%; in [9] (setting [20]), 95.8%; in [10] (setting [21]) it was 54.9%; in assay [11] (setting [22]), 46.3%. In assay [7], the “inhibition effect on different cancer cell lines” value was “significant inhibition effect”.
